{"source": "patent US20210161131A1", "about": "“cis-p-Menthane-1,8-Di-secondary Amine Compounds as well as Their Preparation Methods and Application in Weed Control” (RESEARCH INSTITUTE OF FORESTRY NEW TECHNOLOGY, CHINESE …, priority 2019, published 2021)", "tested_on": "barnyard grass seeds", "experiment": "Petri dish seed germination method: inhibition of root and stem growth of barnyard grass", "assay_type": "in vivo", "details": "96 hours incubation", "description": "(§1) Step 2: Accurately weigh 1 mmol cis-p-menthane-1,8-di-Schiff base compounds and cis-p-menthane-1,8-di-secondary amine compounds respectively, dissolve each of them with 0.25 mL DMF, and add a drop of Tween 80 in each resulted solution. After being fully dissolved, each solution is transferred to a 100 mL volumetric flask respectively and then diluted to the mark with distilled water to obtain a solution with a concentration of 10 mmol/L as the mother liquor. The two-fold dilution method is used to prepare diluted solutions with a series of concentrations (the concentrations of DMF and Tween 80 in the diluted solutions are the same as those in the mother liquor).\n(§2) Barnyard grass seeds are placed in a 28° C. incubator and are soaked in an appropriate amount of distilled water for 12 hours there. After the clean water is filtered out, the seeds are then placed in the 28° C. incubator for 24 hours to germinate. Spread 2 pieces of filter paper in each of several Petri dishes, and place 10 barnyard grass seeds with the same size in each dish. Repeat each treatment for three times The dishes are divided into two groups: test dishes and control dishes. Add into each test dish 10 mL of the sample solution with the corresponding concentration of the target compound, and add into each control dish the same amount of the mixture of water, DMF and Tween 80 as the blank control. Add 10 seeds to each of the dishes (both test dishes and control dishes), place them in an artificial climate incubator, and incubate them for 96 hours under a temperature of 28° C., an illumination of 5000 1×, a photoperiod of day:night=16:8 and a relative humidity of 70-80%. The experimental data is processed and analyzed with DPS software to calculate the inhibition rate (y) of cis-p-menthane-1,8-di-secondary amine compounds on the root growth or stem growth of barnyard grass seeds.\nWherein, y is the inhibition rate of root growth or stem growth (%), x0 is the root length or stem length of the control, and x1 is the root length or stem length of the sample.\nas §1, with “Accurately” for “Step 2: Accurately”, “cis-p-menthane-1,8-bis-(4-chlorophenyl)Schiff” for “cis-p-menthane-1,8-di-Schiff”, “base” for “base compounds”, “cis-p-menthane-1,8-bis-(4-chlorobenzyl)amine” for “cis-p-menthane-1,8-di-secondary amine compounds”, “(5 mmol/L, 2.5 mmol/L, 1.25 mmol/L, 0.625 mmol/L, 0.3125 mmol/L and 0.1563 mmol/L; the” for “(the”\nas §2, with “placed in a 30° C. incubator” for “placed in the 28° C. incubator”, “in each Petri dish,” for “in each of several Petri dishes,”, “each Petri dish, and place” for “several Petri dishes, and place”, “with the above corresponding concentration” for “with the corresponding concentration”, “with DPS software.” for “with DPS software to calculate the inhibition rate (y) of cis-p-menthane-1,8-di-secondary amine compounds on the root growth or stem growth of barnyard grass seeds.”", "data": [{"smiles": "CC1(N=Cc2ccc(C(F)(F)F)cc2)CCC(C(C)(C)N=Cc2ccc(C(F)(F)F)cc2)CC1", "note": "(stereo not drawn) [cis-p-menthane-1,8-bis-(4-trifluoromethylbenzyl)Schiff base, reference compound]", "values": [{"measurement": "inhibition rate on the stem growth of barnyard grass seeds", "setting": "0.3125 mmol/L", "value": 20.6, "unit": "%"}, {"measurement": "inhibition rate on the root growth of barnyard grass seeds", "setting": "0.625 mmol/L", "value": 0.8, "unit": "%"}, {"measurement": "inhibition rate on the stem growth of barnyard grass seeds", "setting": "0.625 mmol/L", "value": 30.9, "unit": "%"}, {"measurement": "inhibition rate on the root growth of barnyard grass seeds", "setting": "1.25 mmol/L", "value": 17.5, "unit": "%"}, {"measurement": "inhibition rate on the stem growth of barnyard grass seeds", "setting": "1.25 mmol/L", "value": 14.6, "unit": "%"}, {"measurement": "inhibition rate on the root growth of barnyard grass seeds", "setting": "2.5 mmol/L", "value": 7.1, "unit": "%"}, {"measurement": "inhibition rate on the stem growth of barnyard grass seeds", "setting": "2.5 mmol/L", "value": 19.5, "unit": "%"}, {"measurement": "inhibition rate on the root growth of barnyard grass seeds", "setting": "5 mmol/L", "value": 48.4, "unit": "%"}, {"measurement": "inhibition rate on the stem growth of barnyard grass seeds", "setting": "5 mmol/L", "value": 31.1, "unit": "%"}]}, {"smiles": "CC1(NCc2ccc(C(F)(F)F)cc2)CCC(C(C)(C)NCc2ccc(C(F)(F)F)cc2)CC1", "note": "(stereo not drawn) [cis-p-menthane-1,8-bis-(4-trifluoromethylbenzyl)amine]", "values": [{"measurement": "inhibition rate on the root growth of barnyard grass seeds", "setting": "0.15625 mmol/L", "value": 1.0, "unit": "%"}, {"measurement": "inhibition rate on the stem growth of barnyard grass seeds", "setting": "0.15625 mmol/L", "value": 11.6, "unit": "%"}, {"measurement": "inhibition rate on the root growth of barnyard grass seeds", "setting": "0.3125 mmol/L", "value": 62.8, "unit": "%"}, {"measurement": "inhibition rate on the stem growth of barnyard grass seeds", "setting": "0.3125 mmol/L", "value": 42.2, "unit": "%"}, {"measurement": "inhibition rate on the root growth of barnyard grass seeds", "setting": "0.625 mmol/L", "value": 82.3, "unit": "%"}, {"measurement": "inhibition rate on the stem growth of barnyard grass seeds", "setting": "0.625 mmol/L", "value": 55.1, "unit": "%"}, {"measurement": "inhibition rate on the root growth of barnyard grass seeds", "setting": "1.25 mmol/L", "value": 86.1, "unit": "%"}, {"measurement": "inhibition rate on the stem growth of barnyard grass seeds", "setting": "1.25 mmol/L", "value": 67.0, "unit": "%"}, {"measurement": "inhibition rate on the root growth of barnyard grass seeds", "setting": "2.5 mmol/L", "value": 100.0, "unit": "%"}, {"measurement": "inhibition rate on the stem growth of barnyard grass seeds", "setting": "2.5 mmol/L", "value": 83.4, "unit": "%"}, {"measurement": "inhibition rate on the root growth of barnyard grass seeds", "setting": "5 mmol/L", "value": 100.0, "unit": "%"}, {"measurement": "inhibition rate on the stem growth of barnyard grass seeds", "setting": "5 mmol/L", "value": 78.5, "unit": "%"}]}, {"smiles": "CC1(NCc2ccc(Br)o2)CCC(C(C)(C)NCc2ccc(Br)o2)CC1", "note": "(stereo not drawn) [cis-p-menthane-1,8-bis-(5-bromofuran-2-methyl)amine]", "values": [{"measurement": "inhibition rate on the root growth of barnyard grass seeds", "setting": "0.15625 mmol/L", "value": 42.2, "unit": "%"}, {"measurement": "inhibition rate on the stem growth of barnyard grass seeds", "setting": "0.15625 mmol/L", "value": 10.1, "unit": "%"}, {"measurement": "inhibition rate on the root growth of barnyard grass seeds", "setting": "0.3125 mmol/L", "value": 39.6, "unit": "%"}, {"measurement": "inhibition rate on the stem growth of barnyard grass seeds", "setting": "0.3125 mmol/L", "value": 5.6, "unit": "%"}, {"measurement": "inhibition rate on the root growth of barnyard grass seeds", "setting": "0.625 mmol/L", "value": 54.8, "unit": "%"}, {"measurement": "inhibition rate on the stem growth of barnyard grass seeds", "setting": "0.625 mmol/L", "value": 11.6, "unit": "%"}, {"measurement": "inhibition rate on the root growth of barnyard grass seeds", "setting": "1.25 mmol/L", "value": 61.5, "unit": "%"}, {"measurement": "inhibition rate on the stem growth of barnyard grass seeds", "setting": "1.25 mmol/L", "value": 30.3, "unit": "%"}, {"measurement": "inhibition rate on the root growth of barnyard grass seeds", "setting": "2.5 mmol/L", "value": 84.4, "unit": "%"}, {"measurement": "inhibition rate on the stem growth of barnyard grass seeds", "setting": "2.5 mmol/L", "value": 50.5, "unit": "%"}, {"measurement": "inhibition rate on the root growth of barnyard grass seeds", "setting": "5 mmol/L", "value": 90.7, "unit": "%"}, {"measurement": "inhibition rate on the stem growth of barnyard grass seeds", "setting": "5 mmol/L", "value": 71.8, "unit": "%"}]}, {"smiles": "Cc1ccc(CNC(C)(C)[C@H]2CC[C@@](C)(NCc3ccc(C)o3)CC2)o1", "note": "[cis-p-menthane-1,8-bis-(5-methylfuran-2-methyl)amine]", "values": [{"measurement": "inhibition rate on the root growth of barnyard grass seeds", "setting": "0.15625 mmol/L", "value": 23.1, "unit": "%"}, {"measurement": "inhibition rate on the stem growth of barnyard grass seeds", "setting": "0.15625 mmol/L", "value": 7.2, "unit": "%"}, {"measurement": "inhibition rate on the root growth of barnyard grass seeds", "setting": "0.3125 mmol/L", "value": 41.3, "unit": "%"}, {"measurement": "inhibition rate on the stem growth of barnyard grass seeds", "setting": "0.3125 mmol/L", "value": 12.5, "unit": "%"}, {"measurement": "inhibition rate on the root growth of barnyard grass seeds", "setting": "0.625 mmol/L", "value": 24.7, "unit": "%"}, {"measurement": "inhibition rate on the stem growth of barnyard grass seeds", "setting": "0.625 mmol/L", "value": 6.8, "unit": "%"}, {"measurement": "inhibition rate on the root growth of barnyard grass seeds", "setting": "1.25 mmol/L", "value": 50.3, "unit": "%"}, {"measurement": "inhibition rate on the stem growth of barnyard grass seeds", "setting": "1.25 mmol/L", "value": 17.1, "unit": "%"}, {"measurement": "inhibition rate on the root growth of barnyard grass seeds", "setting": "2.5 mmol/L", "value": 64.4, "unit": "%"}, {"measurement": "inhibition rate on the stem growth of barnyard grass seeds", "setting": "2.5 mmol/L", "value": 36.5, "unit": "%"}, {"measurement": "inhibition rate on the root growth of barnyard grass seeds", "setting": "5 mmol/L", "value": 95.5, "unit": "%"}, {"measurement": "inhibition rate on the stem growth of barnyard grass seeds", "setting": "5 mmol/L", "value": 79.8, "unit": "%"}]}]}
